# Reference: paper PMC9598656, “In Vitro Activity of Robenidine Analogues NCL259 and NCL265 against Gram-Negative Pathogens” (Antibiotics, 2022)
# What was measured:
# K. pneumoniae ATCC 33495 = assay: Checkerboard assay with PMB; assay type: cell-based, Klebsiella pneumoniae; details: for MIC, Combination: NCL259 or NCL265 with PMB; for Combination Effect / FICI: with PMB
# Description: (§1) MICs of NCL259 or NCL265 in the presence of the efflux pump inhibitor, PAβN were determined using a checkerboard assay. […] Briefly, a two-fold serial dilution of each antimicrobial solution was prepared in its appropriate solvent (e.g., DMSO for robenidine analogues and Milli-Q water for PAβN), and 1 μL of each dilution was added from wells 12 to 3 (12.8–0.25 μg/mL for robenidine analogues, and 32–2 μg/mL for PAβN). Thereafter, 89 μL of LB broth was added to each well followed by the addition of 10 μL of bacterial suspension (1–5 × 10^6 CFU/mL) to each well. In this manner, the final concentration of DMSO in each well was 1%. The plate was subsequently incubated at 37 °C for 24 h. The resazurin assay was used for assessment of drug susceptibility of NCL259 and NCL265 (Supplementary Table S1–S6). The same method was also used to test the MICs of NCL259 or NCL265 in the presence of PMB against a range of Gram-negative reference strains (E. coli ATCC 25922, E. coli ATCC 10763, P. aeruginosa PAO1, P. aeruginosa ATCC 27853, A. baumannii ATCC 12457, A. baumannii ATCC 19606, K. pneumoniae ATCC 4352 and K. pneumoniae ATCC 33495). Stock solutions were prepared prior to use (25.6–0.25 mg/mL for robenidine analogues; 12.8–0.25 mg/mL for PMB). The interaction of two antibiotics was calculated as the fractional inhibitory concentration index (FICI) using the following formula:(1) FICI=MICA in combination/MICA alone+MICB in combination/MICB alone where A is NCL259 or NCL265 and B is PAβN or PMB. According to FICI calculations, the interaction between two compounds were interpreted as follows: synergistic (FICI ≤ 0.5); additive or partially synergistic (0.5 < FICI ≤ 1); indifferent (1 < FICI ≤ 4); and antagonistic (FICI > 4), as described previously. The dose reduction index (DRI) was used to describe the difference between the effective doses of NCL259 or NCL265 in combination with PMB or PAβN in comparison to their individual doses, using the following formula:(2) DRI=MICA alone/MICA in combination
# (§2) Evaluation of DRI is important clinically because it can allow the dose of a potentially toxic drug to be lowered in combination with another compound without reducing the drug’s efficacy. A DRI higher than 1 is viewed as beneficial.
# K. pneumoniae ATCC 4352 = assay: Checkerboard assay with PMB; assay type: cell-based, Klebsiella pneumoniae; details: for MIC, Combination: NCL259 or NCL265 with PMB; for Combination Effect / FICI: with PMB
# Description: as §1, §2
# E. coli ATCC 10763 = assay: Checkerboard assay with PMB; assay type: cell-based, Escherichia coli; details: for MIC, Combination: NCL259 or NCL265 with PMB; for Combination Effect / FICI: with PMB
# Description: as §1, §2
# E. coli ATCC 25922 [1] = assay: Checkerboard assay with PMB; assay type: cell-based, Escherichia coli; details: for MIC, Combination: NCL259 or NCL265 with PMB; for Combination Effect / FICI: with PMB
# Description: as §1, §2
# [2] = tested on: K. pneumoniae 13GNB–429, K. pneumoniae 13GNB–550 and K. oxytoca 13GNB–582; assay: MIC in presence of PAβN, three resistant Klebsiella isolates; assay type: cell-based; details: three resistant Klebsiella spp. isolates
# Description: as §1
# K. oxytoca 13GNB–582 = assay: Checkerboard assay with PAβN; assay type: cell-based; details: for concentration at the marked interaction: resazurin
# Description: as §1, §2
# E. coli ATCC 25922 [3] = details: cited from earlier work; for reduction in CFU (bactericidal): E. coli ATCC 25922, after 30 min treatment; for reduction of colony forming units: within 20 min at the MIC
# E. coli BW 25113 (∆AcrB) = assay: MIC, efflux-pump mutant; assay type: cell-based, Escherichia coli; details: for reduction of MIC in the ∆AcrB mutant compared to wild-type: E. coli BW 25113 ∆AcrB vs wild-type parent; for MIC: Escherichia coli, read-out: MIC Values
# Description: A variety of Gram-negative reference strains (E. coli ATCC 25922, E. coli ATCC 10763, P. aeruginosa PAO1, P. aeruginosa ATCC 27853, A. baumannii ATCC 12457, A. baumannii ATCC 19606, K. pneumoniae ATCC 4352 and K. pneumoniae ATCC 33495) were used for initial screening and combination testing with PMB. The organisms were speciated using biochemical testing and MALDI-TOF mass spectrometry (Bruker, Preston, VIC, Australia). Activity testing of NCL259 and NCL265 was also carried out on 51 extraintestinal clinical E. coli isolates from companion animals, and 83 porcine and bovine enterotoxigenic E. coli (ETEC) isolates from the Australian Centre for Antimicrobial Resistance Ecology collection. E. coli wild-type (BW 25113) and its mutant BW 25113∆AcrB, in which the inner membrane component AcrB of the tripartite multidrug efflux system AcrA/AcrB/TolC has been deleted, were obtained from the bacterial collection held at Health and Biomedical Innovation, Clinical and Health Sciences, The University of South Australia. All isolates were cultured on sheep blood agar (SBA) plates at 37 °C for 18 h before being subcultured into Luria Bertaini (LB) (Oxoid, Scoresby, VIC, Australia) broth and grown to A600nm = 0.5 (equivalent to approx. 1.5 × 10^8 colony-forming units (CFU)/mL).
# MICs for NCL259 and NCL265 (serial two-fold dilutions commencing at 256 µg/mL) were determined (in duplicate) in round bottom 96–well microtitre trays (Sarstedt 82.1582.001), using the broth micro-dilution method recommended by the Clinical and Laboratory Standards Institute (CLSI). We have shown previously that robenidine can chelate calcium ions from cation-adjusted Mueller-Hinton broth, which causes the loss of activity of robenidine. Therefore, LB broth was used in this study. Additionally, considering the low solubility of robenidine and its analogues in aqueous solutions, two-fold serial dilutions of stock solutions of these compounds were prepared in 100% DMSO [21]. The MIC for ampicillin against each isolate was determined for each test to serve as an internal quality control. The MICs of isolates were determined by visual reading and using an EnSpire Multimode Plate Reader 2300 at A600nm.
# [4] = K. oxytoca 13GNB–582, PAβN + NCL259
# [5] = Table S3, NCL259 + PAβN, replicate 1
# [6] = Table S3, NCL259 + PAβN, replicate 2
# [7] = K. oxytoca 13GNB–582, PAβN + NCL265
# [8] = Table S6, NCL265 + PAβN, replicate 1
# [9] = Table S6, NCL265 + PAβN, replicate 2
SMILES,"MIC, Combination (K. pneumoniae ATCC 33495) [µg/mL]",Combination Effect (K. pneumoniae ATCC 33495),FICI (K. pneumoniae ATCC 33495),"MIC, Combination (K. pneumoniae ATCC 4352) [µg/mL]",Combination Effect (K. pneumoniae ATCC 4352),FICI (K. pneumoniae ATCC 4352),"MIC, Combination (E. coli ATCC 10763) [µg/mL]",Combination Effect (E. coli ATCC 10763),FICI (E. coli ATCC 10763),"MIC, Combination (E. coli ATCC 25922 [1]) [µg/mL]",Combination Effect (E. coli ATCC 25922 [1]),FICI (E. coli ATCC 25922 [1]),MIC in the presence of PAβN [2] [µg/mL],reduction of MIC in the presence of PAβN [2],reduction in CFU (bactericidal) (E. coli ATCC 25922 [3]) [log 10],reduction of colony forming units (E. coli ATCC 25922 [3]) [%],reduction of MIC in the ∆AcrB mutant compared to wild-type (E. coli BW 25113 (∆AcrB)) [fold],MIC (E. coli BW 25113 (∆AcrB)) [µg/mL],further results
"[H]/N=C(\N)NN=C(CC1CCCCC1)c1ccc(Cl)cc1 [NCL259, (E)-2-(1-(4-chlorophenyl)-2-cyclohexylethylidene)hydrazine-1-carboximidamide]",1,"Additivity (additive or partially synergistic, 0.5 < FICI ≤ 1)",0.516,1,"Synergism (synergistic, FICI ≤ 0.5)",0.375,0.25,"Additivity (additive or partially synergistic, 0.5 < FICI ≤ 1)",0.504,1,"Additivity (additive or partially synergistic, 0.5 < FICI ≤ 1)",0.563,8 to 16,16- to 32 fold,> 5,100,16,4,"Dose Reduction Index (DRI) PMB:NCL259 (K. pneumoniae ATCC 33495; PMB + NCL259): 64; Dose Reduction Index (DRI) PMB:NCL259 (K. pneumoniae ATCC 4352; PMB + NCL259): 8; Dose Reduction Index (DRI) PMB:NCL259 (E. coli ATCC 10763; PMB + NCL259): 256; Dose Reduction Index (DRI) PMB:NCL259 (E. coli ATCC 25922 [1]; PMB + NCL259): 16; DRI PAβN:NCL259 (K. oxytoca 13GNB–582; K. oxytoca 13GNB–582): 32; Combination Effect (K. oxytoca 13GNB–582; [4]): Synergism (synergistic, FICI ≤ 0.5); FICI (K. oxytoca 13GNB–582; [4]): 0.281; MIC, Combination (K. oxytoca 13GNB–582; [4]): 8 µg/mL; interaction (K. oxytoca 13GNB–582; [5]): synergistic (synergistic (FICI ≤ 0.5)); interaction (K. oxytoca 13GNB–582; [6]): synergistic (synergistic (FICI ≤ 0.5)); concentration at the marked interaction (K. oxytoca 13GNB–582; [5]): 8 µg/mL; concentration at the marked interaction (K. oxytoca 13GNB–582; [6]): 8 µg/mL"
"[H]/N=C(\N)NN=C(CCCCCC)c1ccc(Cl)cc1 [NCL265, (E)-2-(1-(4-chlorophenyl)heptylidene)hydrazine-1-carboximidamide]",2,"Synergism (synergistic, FICI ≤ 0.5)",0.281,0.5,"Synergism (synergistic, FICI ≤ 0.5)",0.5,0.25,"Synergism (synergistic, FICI ≤ 0.5)",0.254,1,"Additivity (additive or partially synergistic, 0.5 < FICI ≤ 1)",0.75,2 to 4,64- to 128 fold,> 5,100,16,1,"Dose Reduction Index (DRI) PMB:NCL265 (K. pneumoniae ATCC 33495; PMB + NCL265): 32; Dose Reduction Index (DRI) PMB:NCL265 (K. pneumoniae ATCC 4352; PMB + NCL265): 4:4; Dose Reduction Index (DRI) PMB:NCL265 (E. coli ATCC 10763; PMB + NCL265): 256; Dose Reduction Index (DRI) PMB:NCL265 (E. coli ATCC 25922 [1]; PMB + NCL265): 4; DRI PAβN:NCL265 (K. oxytoca 13GNB–582; K. oxytoca 13GNB–582): 128; Combination Effect (K. oxytoca 13GNB–582; [7]): Additivity (additive or partially synergistic, 0.5 < FICI ≤ 1); FICI (K. oxytoca 13GNB–582; [7]): 0.508; MIC, Combination (K. oxytoca 13GNB–582; [7]): 2 µg/mL; interaction (K. oxytoca 13GNB–582; [8]): synergistic (synergistic (FICI ≤ 0.5)); interaction (K. oxytoca 13GNB–582; [9]): synergistic (synergistic (FICI ≤ 0.5)); concentration at the marked interaction (K. oxytoca 13GNB–582; [8]): 4 µg/mL; concentration at the marked interaction (K. oxytoca 13GNB–582; [9]): 8 µg/mL"
